In patent US9073821B2, “Hydroxamic acid derivative” (priority 2010, dated 2015) one finds IC50 data, which are given here for 34 molecules.

The test has as its target Pseudomonas aeruginosa LpxC enzyme (Pseudomonas aeruginosa (strain ATCC 15692 / DSM 22644 / CIP 104116 / JCM 14847 / LMG 12228 / 1C / PRS 101 / PAO1), UniProt P47205). The test is described as follows: biochemical. The test is classed as biochemical. To be noted: inhibitory activity on Pseudomonas aeruginosa LpxC enzyme, class symbols A/B/C; read-out: Enzyme inhibitory activity.
As to `CNC(=O)[C@@](C)(C(=O)NO)N(C)C(=O)c1ccc(C#Cc2ccc(CS(C)(=O)=O)cc2)cc1` [Compound 422, (2S)-N-hydroxy-N′,2-dimethyl-2-(methyl {[4-({4-[(methylsulfonyl)methyl]phenyl}ethynyl)phenyl]carbonyl}amino)propanediamide], the IC50 is less than 10 nM. In the case of `CNC(=O)C(C(=O)NO)N(C)C(=O)c1ccc(C#Cc2ccn(C)c2)cc1` (stereo not shown) [Compound 424, N-hydroxy-N′-methyl-2-[methyl({4-[(1-methyl-1H-pyrrol-3-yl)ethynyl]phenyl}carbonyl)amino]propanediamide], the IC50 was 10 to 100 nM. Regarding `CNC(=O)[C@@](C)(C(=O)NO)N(C)C(=O)c1ccc(C#Cc2cnn(C)c2)cc1` [Compound 433, (2S)-N-hydroxy-N′,2-dimethyl-2-[methyl({4-[(1-methyl-1H-pyrazol-4-yl)ethynyl]phenyl}carbonyl)amino]propanediamide], the IC50 is less than 10 nM. Take `CNC(=O)C(C(=O)NO)N(C)C(=O)c1ccc(C#Cc2csc(COC)c2)cc1` (stereo not shown) [Compound 436, N-hydroxy-2-[(4-{[5-(methoxymethyl)thiophen-3-yl]ethynyl}benzoyl)(methyl)amino]-N′-methylpropanediamide]: the IC50 was 10 to 100 nM. With `CNC(=O)[C@@](C)(C(=O)NO)N(C)C(=O)c1ccc(-c2ccc(OCCN3CCOCC3)cc2)cc1` [Compound 437, (2S)-N-hydroxy-N′,2-dimethyl-2-[methyl({4′-[2-(morpholin-4-yl)ethoxy]biphenyl-4-yl}carbonyl)amino]propanediamide], the IC50 is less than 10 nM. As for `CNC(=O)[C@@](C)(C(=O)NO)N(C)C(=O)c1ccc(C#Cc2ccc(CCN3CCCOCC3)cc2)cc1` [Compound 438, (2S)-N-hydroxy-N′,2-dimethyl-2-{methyl[4-({4-[2-(1,4-oxazepan-4-yl)ethyl]phenyl}ethynyl)benzoyl]amino}propanediamide], the IC50 is less than 10 nM. `CNC(=O)C(C(=O)NO)N(C)C(=O)c1ccc(-c2ccccc2)s1` (stereo not shown) [Compound 442, N-hydroxy-N′-methyl-2-{methyl[(5-phenylthiophen-2-yl)carbonyl]amino}propanediamide]: the IC50 is more than 100 nM. Regarding `CNC(=O)C(C(=O)NO)N(C)C(=O)c1ccc(Oc2ccccc2)cc1` (stereo not shown) [Compound 443, N-hydroxy-N′-methyl-2-{methyl[(4-phenoxyphenyl)carbonyl]amino}propanediamide], the IC50 is more than 100 nM. The same measure for `CNC(=O)C(C(=O)NO)N(C)C(=O)c1ccc(OC2C=CCCC2)cc1` (stereo not shown) [Compound 444, 2-[{[4-(cyclohex-2-en-1-yloxy)phenyl]carbonyl}(methyl)amino]-N-hydroxy-N′-methylpropanediamide]: 10 to 100 nM. With `CNC(=O)C(C(=O)NO)N(C)C(=O)c1ccc(Cc2ccccc2)cc1` (stereo not shown) [Compound 445, 2-{[(4-benzylphenyl)carbonyl](methyl)amino}-N-hydroxy-N′-methylpropanediamide], the IC50 is more than 100 nM. As to `CNC(=O)C(C(=O)NO)N(C)C(=O)c1ccc(-c2cncc(C(F)(F)F)c2)cc1` (stereo not shown) [Compound 446, N-hydroxy-N′-methyl-2-[methyl({4-[5-(trifluoromethyl)pyridin-3-yl]phenyl}carbonyl)amino]propanediamide], the IC50 was more than 100 nM. Regarding `CNC(=O)C(C(=O)NO)N(C)C(=O)c1ccc(-c2cncc(OC)c2)cc1` (stereo not shown) [Compound 447, N-hydroxy-2-[{[4-(5-methoxypyridin-3-yl)phenyl]carbonyl}(methyl)amino]-N′-methylpropanediamide], the IC50 is more than 100 nM.

Take `CNC(=O)C(C(=O)NO)N(C)C(=O)c1ccc(-c2ccncc2F)cc1` (stereo not shown) [Compound 448, 2-[{[4-(3-fluoropyridin-4-yl)phenyl]carbonyl}(methyl)amino]-N-hydroxy-N′-methylpropanediamide]: the IC50 lay in the range of 10 to 100 nM. As to `CNC(=O)C(C(=O)NO)N(C)C(=O)c1ccc(-c2ccc(OC)nc2)cc1` (stereo not shown) [Compound 449, N-hydroxy-2-[{[4-(6-methoxypyridin-3-yl)phenyl]carbonyl}(methyl)amino]-N′-methylpropanediamide], the IC50 was 10 to 100 nM. For the molecule `CNC(=O)C(C(=O)NO)N(C)C(=O)c1ccc(-c2ccc(C)nc2)cc1` (stereo not shown) [Compound 450, N-hydroxy-N′-methyl-2-(methyl {[4-(6-methylpyridin-3-yl)phenyl]carbonyl}amino)propanediamide], the IC50 was more than 100 nM. The value for `CNC(=O)C(C(=O)NO)N(C)C(=O)c1ccc(-c2ccnc(C)c2)cc1` (stereo not shown) [Compound 451, N-hydroxy-N′-methyl-2-(methyl {[4-(2-methylpyridin-4-yl)phenyl]carbonyl}amino)propanediamide] was 10 to 100 nM.

For the molecule `CNC(=O)C(C(=O)NO)N(C)C(=O)c1ccc(-c2cc(C)ccn2)cc1` (stereo not shown) [Compound 452, N-hydroxy-N′-methyl-2-(methyl {[4-(4-methylpyridin-2-yl)phenyl]carbonyl}amino)propanediamide], the IC50 was more than 100 nM. Consider `CNC(=O)C(C(=O)NO)N(C)C(=O)c1ccc(OCC#Cc2ccccc2)cc1` (stereo not shown) [Compound 453, N-hydroxy-N′-methyl-2-[methyl({4-[(3-phenylprop-2-yn-1-yl)oxy]phenyl}carbonyl)amino]propanediamide], for which the IC50 lay in the range of 10 to 100 nM. The same measure for `CNC(=O)C(C(=O)NO)N(C)C(=O)c1ccc(OCc2ccccc2)cc1` (stereo not shown) [Compound 454, 2-[{[4-(benzyloxy)phenyl]carbonyl}(methyl)amino]-N-hydroxy-N′-methylpropanediamide]: 10 to 100 nM; for `CNC(=O)C(C(=O)NO)N(C)C(=O)c1ccc(C#Cc2ccccc2)cn1` (stereo not shown) [Compound 455, N-hydroxy-N′-methyl-2-(methyl {[5-(phenylethynyl)pyridin-2-yl]carbonyl}amino)propanediamide]: more than 100 nM. As for `CNC(=O)C(C(=O)NO)N(C)C(=O)c1cnc(-c2ccc(OC)cc2)c(F)c1` (stereo not shown) [Compound 457, 2-[{[5-fluoro-6-(4-methoxyphenyl)pyridin-3-yl]carbonyl}(methyl)amino]-N-hydroxy-N′-methylpropanediamide], the IC50 lay within 10 to 100 nM. The value for `CNC(=O)C(C(=O)NO)N(C)C(=O)c1cnc(-c2ccc3c(c2)OCO3)c(F)c1` (stereo not shown) [Compound 458, 2-[{[6-(1,3-benzodioxol-5-yl)-5-fluoropyridin-3-yl]carbonyl}(methyl)amino]-N-hydroxy-N′-methylpropanediamide] was 10 to 100 nM. On to `CNC(=O)C(C(=O)NO)N(C)C(=O)c1ccc(-c2ccc(C)cc2F)c(F)c1` (stereo not shown) [Compound 460, 2-{[(2,2′-difluoro-4′-methylbiphenyl-4-yl)carbonyl](methyl)amino}-N-hydroxy-N′-methylpropanediamide], for which the IC50 is less than 10 nM.

In the case of `CNC(=O)C(C(=O)NO)N(C)C(=O)c1ccc(C#Cc2ccoc2)cc1` (stereo not shown) [Compound 461, 2-[{[4-(furan-3-ylethynyl)phenyl]carbonyl}(methyl)amino]-N-hydroxy-N′-methylpropanediamide], the IC50 is 10 to 100 nM. As to `CNC(=O)C(C(=O)NO)N(C)C(=O)c1ccc(C#Cc2ccnc(C)c2)cc1` (stereo not shown) [Compound 464, N-hydroxy-N′-methyl-2-[methyl({4-[(2-methylpyridin-4-yl)ethynyl]phenyl}carbonyl)amino]propanediamide], the IC50 is 10 to 100 nM. As to `CNC(=O)C(C(=O)NO)N(C)C(=O)c1ccc(C#Cc2ccc(OCCCN3CCOCC3)cc2)cc1` (stereo not shown) [Compound 465, N-hydroxy-N′-methyl-2-(methyl {[4-({4-[3-(morpholin-4-yl)propoxy]phenyl}ethynyl)phenyl]carbonyl}amino)propanediamide], the IC50 was less than 10 nM. For `CCCOc1ccc(-c2ccc(C(=O)N(C)C(C(=O)NC)C(=O)NO)cc2)cn1` (stereo not shown) [Compound 467, N-hydroxy-N′-methyl-2-(methyl {[4-(6-propoxypyridin-3-yl)phenyl]carbonyl}amino)propanediamide], the IC50 was less than 10 nM. Consider `CNC(=O)C(C(=O)NO)N(C)C(=O)c1ccc(-c2ccc(OCc3ccccc3)nc2)cc1` (stereo not shown) [Compound 468, 2-[({4-[6-(benzyloxy)pyridin-3-yl]phenyl}carbonyl)(methyl)amino]-N-hydroxy-N′-methylpropanediamide], for which the IC50 is less than 10 nM. For `CNC(=O)C(C(=O)NO)N(C)C(=O)c1ccc(-c2ccc(SC)nc2)cc1` (stereo not shown) [Compound 469, N-hydroxy-N′-methyl-2-[methyl({4-[6-(methylsulfanyl)pyridin-3-yl]phenyl}carbonyl)amino]propanediamide], the IC50 lay in the range of 10 to 100 nM. On to `CNC(=O)C(C(=O)NO)N(C)C(=O)c1ccc(C#Cc2ccc(N3CCN(C)CC3)cc2)cc1` (stereo not shown) [Compound 473, N-hydroxy-N′-methyl-2-{methyl[(4-{[4-(4-methylpiperazin-1-yl)phenyl]ethynyl}phenyl)carbonyl]amino}propanediamide], for which the IC50 fell in the range of 10 to 100 nM. For the molecule `CCCCc1ccc(-c2ccc(C(=O)N(C)C(C(=O)NC)C(=O)NO)cc2)cn1` (stereo not shown) [Compound 474, 2-[{[4-(6-butylpyridin-3-yl)phenyl]carbonyl}(methyl)amino]-N-hydroxy-N′-methylpropanediamide], the IC50 was 10 to 100 nM. The same measure for `CCCCCNc1ccc(-c2ccc(C(=O)N(C)C(C(=O)NC)C(=O)NO)cc2)cn1` (stereo not shown) [Compound 475, N-hydroxy-N′-methyl-2-[methyl({4-[6-(pentylamino)pyridin-3-yl]phenyl}carbonyl)amino]propanediamide]: 10 to 100 nM; for `CNC(=O)C(C(=O)NO)N(C)C(=O)c1ccc(C#CC#Cc2ccc(CNC3CC3)cc2)cc1` (stereo not shown) [Compound 476, 2-[{[4-(4-{4-[(cyclopropylamino)methyl]phenyl}buta-1,3-diyn-1-yl)phenyl]carbonyl}(methyl)amino]-N-hydroxy-N′-methylpropanediamide]: less than 10 nM; for `CNC(=O)C(C(=O)NO)N(C)C(=O)c1ccc(C#C/C=C/c2ccc(OC)nc2)cc1` (stereo not shown) [Compound 478, N-hydroxy-2-[({4-[(3E)-4-(6-methoxypyridin-3-yl)but-3-en-1-yn-1-yl]phenyl}carbonyl)(methyl)amino]-N′-methylpropanediamide]: less than 10 nM.
